According to patent US12637461B2, “Compounds for the activation of AMPK” (PFIZER INC., priority 2022, dated 2026):

Biological target: T1, human AMPK α2β2γ3 (Homo sapiens, UniProt O43741+P54646+Q9UGI9)
T1 construct: expressed in transfected cells; host or cells: HEK293AD cells, MaxCyte bulk electroporation
Assay: Primary cellular assay: γ3 associated phospho-Thr172 AMPK detection (custom pAMPK Surefire AlphaLISA) in α2β2γ3 bulk transiently transfected HEK293 cells
Type: cell-based
Details: activation of human AMPK α2β2γ3 (γ3 pThr172 AMPK signal) in transiently transfected HEK293 cells, 20 minutes compound incubation; for Emax: 20 min, read-out: Assay GMean Asy. Max (%); for EC50: geometric mean EC50, read-out: Assay GMean EC50
Procedure, shortened: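 Transiently co-transfected (α2/β2/γ3 plasmids, electroporation) HEK293AD cells, plated 2 days in low-glucose DMEM+10% FBS, treated 20 min with compounds (11-point half-log dilutions). Lysates read by modified AlphaLISA capturing γ3 with pThr172 antibody detection. % effect relative to 30 μM HPE and DMSO; EC50 and Emax from curve fit.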

[1] = geometric mean of the asymptotic max

T1 sequence (P54646 whole entry): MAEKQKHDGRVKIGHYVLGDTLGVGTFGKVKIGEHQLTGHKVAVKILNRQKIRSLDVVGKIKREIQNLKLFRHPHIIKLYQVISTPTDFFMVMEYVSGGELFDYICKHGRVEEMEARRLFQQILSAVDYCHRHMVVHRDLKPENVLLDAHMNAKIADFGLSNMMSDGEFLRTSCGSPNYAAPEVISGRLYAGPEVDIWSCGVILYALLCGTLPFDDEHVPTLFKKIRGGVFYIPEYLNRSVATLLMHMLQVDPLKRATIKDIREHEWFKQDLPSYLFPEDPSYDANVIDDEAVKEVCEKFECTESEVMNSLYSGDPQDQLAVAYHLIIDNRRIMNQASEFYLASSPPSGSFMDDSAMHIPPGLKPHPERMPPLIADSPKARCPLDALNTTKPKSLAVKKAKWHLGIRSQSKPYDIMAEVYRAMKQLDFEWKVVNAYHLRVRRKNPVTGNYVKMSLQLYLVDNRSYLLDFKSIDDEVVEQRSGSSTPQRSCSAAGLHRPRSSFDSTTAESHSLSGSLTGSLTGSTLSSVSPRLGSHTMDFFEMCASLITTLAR
T1 sequence (O43741 whole entry): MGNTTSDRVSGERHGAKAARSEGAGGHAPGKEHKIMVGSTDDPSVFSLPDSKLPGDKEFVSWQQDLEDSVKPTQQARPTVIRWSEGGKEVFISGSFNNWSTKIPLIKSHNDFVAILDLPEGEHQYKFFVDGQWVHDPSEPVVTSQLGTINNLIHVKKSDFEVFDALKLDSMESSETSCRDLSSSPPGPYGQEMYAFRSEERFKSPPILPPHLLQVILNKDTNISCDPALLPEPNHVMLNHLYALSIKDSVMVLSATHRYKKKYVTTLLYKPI
T1 sequence (Q9UGI9 whole entry): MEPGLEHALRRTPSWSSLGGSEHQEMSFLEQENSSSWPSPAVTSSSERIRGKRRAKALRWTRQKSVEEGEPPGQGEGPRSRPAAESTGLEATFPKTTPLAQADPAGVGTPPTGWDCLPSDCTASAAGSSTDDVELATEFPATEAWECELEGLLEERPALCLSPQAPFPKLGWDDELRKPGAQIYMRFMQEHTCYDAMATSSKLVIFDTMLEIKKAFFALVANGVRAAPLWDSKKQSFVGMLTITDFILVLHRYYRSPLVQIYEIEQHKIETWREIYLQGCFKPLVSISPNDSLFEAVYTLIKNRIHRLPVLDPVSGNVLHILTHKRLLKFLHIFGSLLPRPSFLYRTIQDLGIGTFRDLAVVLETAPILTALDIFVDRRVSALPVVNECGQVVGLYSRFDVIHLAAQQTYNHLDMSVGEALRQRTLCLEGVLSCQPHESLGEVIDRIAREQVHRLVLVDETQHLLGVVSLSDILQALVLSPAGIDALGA

Structure (SMILES) | Emax [1] | EC50 | Assay GMean Asy. Max (%) [1]
CC1(c2cccc(Cl)c2F)CN(c2ncccc2F)C(=O)c2cnc(NC3CN(C(=O)N4CC5CC4C5)C3)nc21 (stereo not drawn) [compound 89, 2-{[1-(2-azabicyclo[2.1.1]hexane-2-carbonyl)azetidin-3-yl]amino}-8-(3-chloro-2-fluorophenyl)-6-(3-fluoropyridin-2-yl)-8-methyl-7,8-dihydropyrido[4,3-d]pyrimidin-5(6H)-one,from P13 (ENANT-2)] | 148% | 152 nM | –
CN(C)C(=O)CN1CC(Nc2ccc3c(c2F)C(C)(c2cccc(Cl)c2F)CN(c2nn(C)cc2F)C3=O)C1 (stereo not drawn) [compound 90, 2-(3-{[4-(3-chloro-2-fluorophenyl)-5-fluoro-2-(4-fluoro-1-methyl-1H-pyrazol-3-yl)-4-methyl-1-oxo-1,2,3,4-tetrahydroisoquinolin-6-yl]amino}azetidin-1-yl)-N,N-dimethylacetamide, from P18 (ENANT-2)] | 120% | 147 nM | –
Cn1cc(F)c(N2CC(C)(c3cccc(Cl)c3F)c3c(ccc(NC4CN(CC(=O)N5CCOCC5)C4)c3F)C2=O)n1 (stereo not drawn) [compound 91, 4-(3-chloro-2-fluorophenyl)-5-fluoro-2-(4-fluoro-1-methyl-1H-pyrazol-3-yl)-4-methyl-6-({1-[2-(morpholin-4-yl)-2-oxoethyl]azetidin-3-yl}amino)-3,4-dihydroisoquinolin-1(2H)-one,from P18 (ENANT-2)] | 99.7% | 168 nM | –
Cn1cc(F)c(N2CC(C)(c3cccc(Cl)c3F)c3c(ccc(NC4CN(CC(=O)N5CCC5)C4)c3F)C2=O)n1 (stereo not drawn) [compound 92, 6-({1-[2-(azetidin-1-yl)-2-oxoethyl]azetidin-3-yl}amino)-4-(3-chloro-2-fluorophenyl)-5-fluoro-2-(4-fluoro-1-methyl-1H-pyrazol-3-yl)-4-methyl-3,4-dihydroisoquinolin-1(2H)-one, from P18 (ENANT-2)] | – | 58.9 nM | 109%
C[C@]1(c2cccc(Cl)c2F)CN(c2cc(N)ccn2)C(=O)c2cnc(NC3CN(C(=O)[C@@H]4C[C@@H]4F)C3)c(F)c21 [compound 93, (4R)-2-(4-aminopyridin-2-yl)-4-(3-chloro-2-fluorophenyl)-5-fluoro-6-({1-[(1S,2S)-2-fluorocyclopropane-1-carbonyl]azetidin-3-yl}amino)-4-methyl-3,4-dihydro-2,7-naphthyridin-1(2H)-one] | 57.5% | 65.3 nM | –
Cn1cnc(N2C[C@](C)(c3cccc(Cl)c3F)c3c(cnc(NC4CN(C(=O)[C@@H]5C[C@@H]5F)C4)c3F)C2=O)c1 [compound 94, (4R)-4-(3-chloro-2-fluorophenyl)-5-fluoro-6-({1-[(1S,2S)-2-fluorocyclopropane-1-carbonyl]azetidin-3-yl}amino)-4-methyl-2-(1-methyl-1H-imidazol-4-yl)-3,4-dihydro-2,7-naphthyridin-1(2H)-one] | 50.3% | 212 nM | –
Cn1cc(F)c(N2C[C@](C)(c3cccc(Cl)c3F)c3c(cnc(NC4CN(C(=O)[C@H]5C[C@H]5F)C4)c3F)C2=O)n1 [compound 99, (4R)-4-(3-chloro-2-fluorophenyl)-5-fluoro-6-({1-[(1R,2R)-2-fluorocyclopropane-1-carbonyl]azetidin-3-yl}amino)-2-(4-fluoro-1-methyl-1H-pyrazol-3-yl)-4-methyl-3,4-dihydro-2,7-naphthyridin-1(2H)-one] | 49.7% | 70.2 nM | –
C[C@]1(c2cccc(Cl)c2F)CN(c2ncccc2F)C(=O)c2cnc(NC3CN(C(=O)N4CCN5CC(F)(F)C[C@@H]5C4)C3)c(F)c21 [compound 100, (4R)-4-(3-chloro-2-fluorophenyl)-6-({1-[(8aR)-7,7-difluorohexahydropyrrolo[1,2-a]pyrazine-2(1H)-carbonyl]azetidin-3-yl}amino)-5-fluoro-2-(3-fluoropyridin-2-yl)-4-methyl-3,4-dihydro-2,7-naphthyridin-1(2H)-one] | 22.8% | 11.6 nM | –
Cn1cc(F)c(N2CC(C)(c3ccc(F)c(Cl)c3F)c3c(cnc(NC4CN(C(=O)C(C)(C)O)C4)c3F)C2=O)n1 (stereo not drawn) [compound 101, 4-(3-chloro-2,4-difluorophenyl)-5-fluoro-2-(4-fluoro-1-methyl-1H-pyrazol-3-yl)-6-{[1-(2-hydroxy-2-methylpropanoyl)azetidin-3-yl]amino}-4-methyl-3,4-dihydro-2,7-naphthyridin-1(2H)-one, from P3 (ENANT-2)] | 108% | 135 nM | –
Cc1c(F)ccc(C2(C)CN(c3ncccc3F)C(=O)c3cnc(NC4CN(C(=O)C5(O)CC5)C4)c(F)c32)c1F (stereo not drawn) [compound 106, 4-(2,4-difluoro-3-methylphenyl)-5-fluoro-2-(3-fluoropyridin-2-yl)-6-{[1-(1-hydroxycyclopropane-1-carbonyl)azetidin-3-yl]amino}-4-methyl-3,4-dihydro-2,7-naphthyridin-1(2H)-one, from P5 (ENANT-2)] | 70.5% | 33.9 nM | –
CC1(c2cccc(F)c2F)CN(c2ncccc2F)C(=O)c2cnc(NC3CN(C(=O)C4(O)CC4)C3)c(F)c21 (stereo not drawn) [compound 108, 4-(2,3-difluorophenyl)-5-fluoro-2-(3-fluoropyridin-2-yl)-6-{[1-(1-hydroxycyclopropane-1-carbonyl)azetidin-3-yl]amino}-4-methyl-3,4-dihydro-2,7-naphthyridin-1(2H)-one, from P7 (ENANT-2)] | 76.8% | 123 nM | –
CN(C)C(=O)CN1CCC(Nc2ncc3c(c2F)C(C)(c2cccc(Cl)c2F)CN(c2nn(C)cc2F)C3=O)C1 [compound 110, 2-[(3R)-3-{[5-(3-chloro-2-fluorophenyl)-4-fluoro-7-(4-fluoro-1-methyl-1H-pyrazol-3-yl)-5-methyl-8-oxo-5,6,7,8-tetrahydro-2,7-naphthyridin-3-yl]amino}pyrrolidin-1-yl]-N,N-dimethylacetamide, from P9 (DIAST-2)] | 63.2% | 266 nM | –
